The source of these data is PMC6543015, “Exploring the overlapping binding sites of ifenprodil and EVT‐101 in GluN2B‐containing NMDA receptors using novel chicken embryo forebrain cultures and molecular modeling” (Pharmacology Research & Perspectives, 2019).

Read-outs that look alike come from different tables or passages of the source.

In general, IC50 refers to the point on the concentration scale where inhibition reaches its midpoint. The EC50 is the concentration that produces a half-maximal response.

The target in experiment [1] is native GluN2B‐containing NMDA receptors (Gallus gallus, UniProt F1NMB0+Q4KXT1). Nature of the experiment: Calcium influx measurement (Fura-2) in E10 chicken embryo forebrain cell culture at DIV1, induced with NMDA and glycine. The format is cell-based, chicken (Gallus gallus). The following applies: for EC50: primary cultures from chicken embryo forebrain (E10), read-out: EC50, inhibition of calcium influx; for Emax: read-out: calcium influx blocked. The method, then:
The eggs were submerged in crushed ice for 7 minutes to anesthetize the embryos before decapitation. The forebrain was surgically removed, and the meninges were discarded. The tissue was homogenized by chopping with a scalpel before trypsination in buffered solutions as previously described.30, 31 Cells were suspended in DMEM supplemented with 1% N‐2, 100 U/mL penicillin and 0.1 mg/mL streptomycin (Pen‐Strep), 10% fetal bovine serum (FBS), and 0.75% GlutaMAX™. Cells were seeded (1.7 × 10^6 cells/mL) on 35 mm Petri dishes or in 96‐well plates (Corning® CellBIND® 96 well plates; Merck) precoated with poly‐L‐lysine, and incubated at 37°C, with 5% CO2. These cultures contain an abundance of functional GluN2B receptors on DIV1 (A. Ring, pers. commun.).
Fura‐2 fluorescence was measured using CLARIOstar® plate reader (BMG Labtech, Germany). Intracellular Ca^2+ changes were expressed as changes in 340/380 nm fluorescence emission ratio. The wash buffer was then carefully replaced with test compound (20 nmol/L to 10 μmol/L) in standard buffer (n = 4 per concentration, two compounds per 96‐well plate). NMDA receptor‐mediated Ca^2+ influx was induced by NMDA (0.2 mmol/L) and glycine (0.1 mmol/L) in each well. The resulting rise in intracellular Ca^2+ was expressed as a change in the 340/380 emission ratio by subtracting the initial Ca^2+ level from the NMDA stimulated Ca^2+ responses. […] Inhibition curves for each compound were established by dose response experiments (n ≥ 5). For Ro 04‐5595, four representative IC50 values were chosen to make Figure 2A, while 13 experiments around the median were chosen for Figure 2C.

Experiment [2] deals with recombinant GluN1/GluN2B receptors. To be noted: recombinant GluN1/GluN2B in X. laevis oocytes, electrophysiology; cited from earlier work.
Experiment [3] shares this target. Set-up: method as in PMID 22197913. The following applies: recombinant GluN1/GluN2B in X. laevis oocytes, electrophysiology; cited from earlier work.
[4] abbreviates: E10 chicken forebrain cell culture at DIV 1, NMDA 200 and glycine 100 μmol/L, Fura-2, read-out: IC50 Chicken (present work).
Setting [5] is: maximal block by GluN2B-specific allosteric antagonists, chicken forebrain culture.

native GluN2B‐containing NMDA receptors, sequence (F1NMB0 entry or part of it, other chains not shown): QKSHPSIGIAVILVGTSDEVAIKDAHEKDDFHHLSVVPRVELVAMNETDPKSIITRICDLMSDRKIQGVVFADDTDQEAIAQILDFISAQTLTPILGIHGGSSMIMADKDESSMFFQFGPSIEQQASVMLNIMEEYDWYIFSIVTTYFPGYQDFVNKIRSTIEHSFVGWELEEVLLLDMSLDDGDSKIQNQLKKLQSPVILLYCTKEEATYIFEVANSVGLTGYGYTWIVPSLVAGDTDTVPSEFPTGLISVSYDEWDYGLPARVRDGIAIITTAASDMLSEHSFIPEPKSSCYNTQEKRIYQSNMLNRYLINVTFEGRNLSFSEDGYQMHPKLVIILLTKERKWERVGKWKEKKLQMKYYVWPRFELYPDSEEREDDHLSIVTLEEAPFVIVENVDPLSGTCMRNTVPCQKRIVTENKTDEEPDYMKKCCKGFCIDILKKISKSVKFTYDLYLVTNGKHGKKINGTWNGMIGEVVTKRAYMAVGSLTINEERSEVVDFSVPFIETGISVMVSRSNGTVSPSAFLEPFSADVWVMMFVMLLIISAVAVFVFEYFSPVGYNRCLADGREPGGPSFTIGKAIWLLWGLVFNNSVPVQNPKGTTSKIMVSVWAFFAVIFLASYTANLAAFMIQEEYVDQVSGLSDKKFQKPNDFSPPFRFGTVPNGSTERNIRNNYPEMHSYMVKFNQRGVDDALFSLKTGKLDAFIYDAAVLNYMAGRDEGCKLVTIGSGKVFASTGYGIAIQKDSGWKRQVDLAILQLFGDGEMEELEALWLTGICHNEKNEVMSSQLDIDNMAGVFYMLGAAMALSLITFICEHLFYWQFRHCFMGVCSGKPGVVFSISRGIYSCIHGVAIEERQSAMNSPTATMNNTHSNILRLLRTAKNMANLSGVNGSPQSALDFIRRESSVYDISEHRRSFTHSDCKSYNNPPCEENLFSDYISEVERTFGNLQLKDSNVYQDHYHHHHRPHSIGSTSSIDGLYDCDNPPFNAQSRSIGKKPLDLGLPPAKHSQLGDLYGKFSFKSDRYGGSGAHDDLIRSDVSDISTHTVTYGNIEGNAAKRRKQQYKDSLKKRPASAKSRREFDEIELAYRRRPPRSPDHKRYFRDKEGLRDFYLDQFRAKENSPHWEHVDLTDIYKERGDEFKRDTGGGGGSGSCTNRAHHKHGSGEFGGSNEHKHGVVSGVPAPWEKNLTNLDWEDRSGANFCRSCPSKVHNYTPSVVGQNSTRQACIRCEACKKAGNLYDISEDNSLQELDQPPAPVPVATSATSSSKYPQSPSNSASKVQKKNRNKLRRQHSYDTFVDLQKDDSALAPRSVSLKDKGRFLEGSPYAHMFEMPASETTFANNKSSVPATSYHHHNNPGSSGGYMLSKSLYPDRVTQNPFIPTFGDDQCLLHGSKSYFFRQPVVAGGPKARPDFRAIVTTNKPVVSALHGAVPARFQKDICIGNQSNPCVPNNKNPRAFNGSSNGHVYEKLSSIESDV

`Cc1nccn1Cc1cc(-c2ccc(F)c(C(F)F)c2)cnn1.Cl.Cl` [EVT‐101]: the IC50 in experiment [1] (setting [4]) was 22 ± 8 nM; in experiment [2], 12 ± 0.2 nM. In experiment [1] (setting [5]), the calcium influx blocked entry is “approximately 70%”. Moreover, the EC50 in experiment [1] amounted to 22 ± 8 nM.

As for `CC(C(O)c1ccc(O)cc1)N1CCC(Cc2ccccc2)CC1` (stereo not shown) [Ifenprodil, ifenprodil], the IC50 is 103 ± 39 nM in experiment [1] (setting [4]), 130 ± 10 nM in experiment [3] and 110 ± 10 nM in experiment [2]. The EC50 in experiment [1] came to 100 ± 40 nM. Further, the Emax in experiment [1] was about 70%.

`OC(CN1CCC(Cc2ccc(F)cc2)CC1)c1ccc(Cl)cc1` (stereo not shown) [Eliprodil, eliprodil]: the figures for the IC50 in experiment [1] (setting [4]), in experiment [3] and in experiment [2] were 1260 ± 683 nM, 930 ± 140 nM and 780 ± 90 nM, respectively. For the same compound, the Emax in experiment [1] (setting [5]) was about 70%. For the same compound, the EC50 in experiment [1] turned out to be 1300 ± 700 nM.

In the case of `COc1cc2c(cc1O)C(CCc1ccc(Cl)cc1)N(C)CC2` (stereo not shown) [Ro 04‐5595], the IC50 in experiment [1] (setting [4]) is 186 ± 35 nM; in experiment [1] (chicken forebrain culture calcium influx assay, read-out: IC50 value), under 200 nM. For the same compound, in experiment [1], the EC50 was 186 ± 32 nM.

With `C[C@@H]([C@H](O)c1ccc(O)cc1)N1CCC(Cc2ccccc2)CC1` [Ro 25‐6981], the IC50 is 60 ± 27 nM in experiment [1] (setting [4]), 49 ± 8 nM in experiment [3] and 42 ± 6 nM in experiment [2]. In addition, the calcium influx blocked entry in experiment [1] (setting [5]) was “approximately 70%”. Further, the EC50 in experiment [1] was 60 ± 30 nM.
